# From ChEMBL document CHEMBL1201862, “PubChem BioAssay data set” (2004)
#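 The compound was tested at five concentrations on cells cultured in 96-well plates, with a 48-hour exposure period. GI50 is the concentration that inhibits growth by half.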 Activity calls are given as the source filed them. Cut-off read from the data, not from the text of the source: active = GI50 up to about 1.1 µM and inactive = higher.
# Experiments:
# Assay in all cases: growth of human tumour cells (NCI), 48 h
# DMS-273 = system: DMS-273
# HOP-18 = system: HOP-18
# RXF 631 = system: RXF 631
# MDA-N = system: MDA-N
# MDA-MB-435 = system: MDA-MB-435
# Hs-578T = system: Hs-578T
# NCI/ADR-RES = system: NCI/ADR-RES
# BT-549 = system: BT-549
# DLD-1 = system: DLD-1
SMILES,GI50 (DMS-273),GI50 (HOP-18),GI50 (RXF 631),GI50 (MDA-N),GI50 (MDA-MB-435),GI50 (Hs-578T),GI50 (NCI/ADR-RES),GI50 (BT-549),GI50 (DLD-1)
C=C(C)CCN[Si](c1ccccc1)(c1ccccc1)C(C)(C)C,18.8 µM (inactive),17.2 µM (inactive),20.2 µM (inactive),–,–,–,–,–,–
N=C(N)N/N=C/c1ccc(O)c(C(=O)O)c1,–,–,–,> 100 µM (inactive),> 100 µM (inactive),> 100 µM (inactive),> 100 µM (inactive),> 100 µM (inactive),–
CCOC(=O)C1=C(C)N(C2OC(COC(=O)c3ccccc3)C(OC(=O)c3ccccc3)C2OC(=O)c2ccccc2)C(=S)NC1c1ccccc1 (stereo unspecified),–,16.7 µM (inactive),–,–,–,–,–,–,38.9 µM (inactive)
CC(OC(C)(C)C)[C@H](NC(=O)OCC(Cl)(Cl)Cl)C(=O)O (stereo partly specified),> 100 µM (inactive),–,–,–,–,–,–,–,> 100 µM (inactive)
O=C1ON(Cc2ccccc2)C(c2ccccc2)N1c1ccccc1 (stereo unspecified),> 100 µM (inactive),> 100 µM (inactive),–,–,–,–,> 100 µM (inactive),–,> 100 µM (inactive)
Cc1ccc(NC(=O)CC(=O)n2nc(-c3ccccc3)c(/N=N/c3ccccc3Cl)c2-c2ccccc2)cc1,41.8 µM (inactive),38.1 µM (inactive),96.2 µM (inactive),–,–,–,–,–,> 10 µM (inactive)
O=C(CC(C(=O)c1cccs1)c1ccc2c(c1)OCO2)c1ccc(Br)cc1 (stereo unspecified),–,–,–,> 100 µM (inactive),> 100 µM (inactive),–,> 100 µM (inactive),–,–
Cc1ccc(Nc2n[nH]c(NS(=O)(=O)c3cc(C(=O)Nc4ccc(Cl)cc4)c(Cl)cc3S)n2)cc1,–,–,–,> 100 µM (inactive),> 100 µM (inactive),84.9 µM (inactive),> 100 µM (inactive),> 100 µM (inactive),–
CCOC(=O)C(Cc1ccccc1)NC(=O)OC(C)(C)C (stereo unspecified),> 100 µM (inactive),–,> 100 µM (inactive),–,–,–,–,–,> 100 µM (inactive)
CSc1cc(Cl)c(C)cc1S(=O)(=O)NC(=O)NNc1ccc(F)c(Cl)c1,–,–,–,> 100 µM (inactive),> 100 µM (inactive),> 100 µM (inactive),> 100 µM (inactive),–,–
O=NN1C(c2ccccc2)CCCC1c1ccccc1 (stereo unspecified),39.8 µM (inactive),> 77.8 µM (inactive),–,–,–,–,51.1 µM (inactive),–,> 90.6 µM (inactive)
O=[N+]([O-])c1ccc(C2Nn3c(nnc3-c3cccc([N+](=O)[O-])c3)S2)cc1 (stereo unspecified),–,–,–,–,51.5 µM (inactive),> 100 µM (inactive),> 100 µM (inactive),> 100 µM (inactive),–
CCOC(=O)CC(=O)CSc1c(-c2ccccc2)c(=O)n(-c2ccccc2)c(=S)n1-c1ccccc1,–,–,–,> 100 µM (inactive),> 100 µM (inactive),> 100 µM (inactive),> 100 µM (inactive),–,–
O=C(/C=C/c1cccc2ccccc12)c1ccccc1Cl,14.4 µM (inactive),17.1 µM (inactive),18.1 µM (inactive),–,–,–,–,–,7.89 µM (inactive)
Cc1ccc(-c2cc(-c3ccco3)c(C#N)c(=O)n2C2OC(CO)C(O)C(O)C2O)cc1 (stereo unspecified),50.7 µM (inactive),> 100 µM (inactive),–,–,–,–,–,–,67.6 µM (inactive)
O=C1C=CC2=[N+]([O-])C(c3ccccc3)(c3ccccc3)/C(=N\c3ccccc3)C2=C1,2.38 µM (inactive),2.92 µM (inactive),3.05 µM (inactive),–,–,–,–,–,1.53 µM (inactive)
N#CC1(C#N)C(=O)c2ccncc2C1=O,–,–,–,> 100 µM (inactive),> 100 µM (inactive),> 100 µM (inactive),63.7 µM (inactive),> 100 µM (inactive),–
C[C@]12CC[C@@H]3c4ccc(O)cc4CC[C@H]3[C@@H]1CC[C@@H]2OP(=O)(O)O,–,–,–,> 100 µM (inactive),> 100 µM (inactive),> 100 µM (inactive),> 100 µM (inactive),> 100 µM (inactive),–

SMILES,GI50 (DMS-273),GI50 (HOP-18),GI50 (RXF 631),GI50 (MDA-N),GI50 (MDA-MB-435),GI50 (Hs-578T),GI50 (NCI/ADR-RES),GI50 (BT-549),GI50 (DLD-1)
CC(Cn1c(=O)oc2ccccc21)N(C)C (stereo unspecified),–,–,–,> 100 µM (inactive),> 100 µM (inactive),> 100 µM (inactive),> 100 µM (inactive),> 100 µM (inactive),–
CC(=O)O[C@@]12CO[C@@H]1CC(O)[C@@]1(C)C(=O)[C@H](O)C3=C(C)C(O)C[C@@](O)(C(OC(=O)c4ccccc4)C12)C3(C)C (stereo partly specified),0.472 µM (active),–,–,–,0.18 µM (active),0.252 µM (active),> 100 µM (inactive),1.26 µM (inactive),–
COc1ccc(-c2cc(-c3cc(OC)c(OC)c(OC)c3)cc(-c3cc4ccccc4oc3=O)n2)cc1,–,–,–,11.6 µM (inactive),16.7 µM (inactive),2.38 µM (inactive),7.18 µM (inactive),8.79 µM (inactive),–
CC(=O)O[C@]12CCCCCC1C1(O)C(O)CCCC[C@H]12 (stereo partly specified),> 100 µM (inactive),–,–,–,–,–,–,–,–
COC(=O)C12CC3CC(CC(C(=O)O)(C3)C1)C2,> 100 µM (inactive),> 100 µM (inactive),> 100 µM (inactive),–,–,–,–,–,–
COC(=O)c1ccc(/N=N/N(C)COc2ccc([N+](=O)[O-])cc2)cc1,> 100 µM (inactive),–,–,–,–,–,> 100 µM (inactive),–,> 100 µM (inactive)
O=S(=O)(O)c1ccc(/N=N\c2ccc(/N=N/c3ccc(/C=C/c4ccc(/N=[N+](\[O-])c5ccc(/C=C/c6ccc(/N=N/c7ccc(/N=N/c8ccc(S(=O)(=O)O)cc8)c8ccccc78)cc6S(=O)(=O)O)c(S(=O)(=O)O)c5)cc4S(=O)(=O)O)c(S(=O)(=O)O)c3)c3ccccc23)cc1,> 100 µM (inactive),30.5 µM (inactive),–,–,–,–,> 100 µM (inactive),–,> 100 µM (inactive)
COc1cc(/C=C/C(=O)C(C)(C)C)cc(OC)c1OC,40.1 µM (inactive),> 100 µM (inactive),–,–,–,–,–,–,37.9 µM (inactive)
CCOC(=O)c1ccc(N(CCOS(=O)(=O)c2ccc(C)cc2)CCOS(=O)(=O)c2ccc(C)cc2)cc1,–,–,–,> 100 µM (inactive),> 100 µM (inactive),> 100 µM (inactive),> 100 µM (inactive),> 100 µM (inactive),–
CC1(c2ccccc2)N=c2[nH]cnc2=C(C(N)=O)N1 (stereo unspecified),–,–,–,> 100 µM (inactive),> 100 µM (inactive),> 100 µM (inactive),> 100 µM (inactive),–,–
O=C(O)Cc1cccc2c1Oc1ccccc1S2,> 100 µM (inactive),–,–,–,–,–,–,–,> 100 µM (inactive)
O=C(c1cccs1)c1nccc2c1cnc1ccccc12,–,–,–,–,> 100 µM (inactive),94.6 µM (inactive),> 100 µM (inactive),–,–
CN1NC(c2ccccc2)=C(C#N)C(=O)CC1c1ccc(Br)cc1 (stereo unspecified),–,17.9 µM (inactive),–,–,–,–,–,–,26.1 µM (inactive)
COc1ccc2c(c1)CCN=C2Cc1cc(OC)c(OC)cc1CCCl,–,–,–,53.8 µM (inactive),52 µM (inactive),22.1 µM (inactive),> 100 µM (inactive),> 100 µM (inactive),–
Cc1ccc(S(=O)OCC23CC4CC(CC(C4)C2)C3)cc1 (stereo unspecified),> 100 µM (inactive),> 100 µM (inactive),–,–,–,–,–,–,> 100 µM (inactive)
C[C@]12CCC(=O)C(O)=C1CC[C@@H]1[C@@H]2CC[C@]2(C)C(=O)CC[C@@H]12 [FORMESTANE],–,–,> 100 µM (inactive),> 100 µM (inactive),> 100 µM (inactive),> 100 µM (inactive),> 100 µM (inactive),> 100 µM (inactive),> 100 µM (inactive)
C=CCN1/C(=C(\C#N)c2nc3ccccc3[nH]2)Sc2c1nc[nH]c2=O,> 100 µM (inactive),–,–,–,–,–,–,–,> 100 µM (inactive)
O=C1NC2=C(CCCC/C2=N\O)C12CCCCC2,–,–,–,–,–,–,–,–,> 100 µM (inactive)
